Measurements: patent US8399435B2, “Compounds for the treatment of proliferative disorders” (Synta Pharmaceuticals Corp., priority 2005, dated 2013)

Legend:
[1] = test system: MES-SA/DX5 (uterine sarcoma, multidrug resistant); assay: In vitro cytotoxicity, MTS assay, multidrug resistant MES-SA/DX5 cells; type: cell-based, human; conditions: for IC50: Homo sapiens, MES/DX5, MDR-1, 72 hours incubation; for Activity against multidrug resistant cell line MES/SA-DX compared with Taxol: comparison with Taxol
Protocol: (§1) The in vitro cytotoxicity of the compounds of the invention was determined in the following human cell lines: HL-60 ([…]), MES-SA and MES-SA/DX5 (uterine sarcoma). MES-SA is a model of uterine sarcoma, and the cell are sensitive to a number of chemotherapeutic agents including doxorubicin, dactinomycin, mitomycin C, taxol and bleomycin, but resistant to vinblastine and cisplatin. MES-SA/Dx5 was established in the presence of increasing concentrations of doxorubicin. […] All cells were purchased from ATCC.
(§2) The cell lines were maintained in RPMI1640 (GIBCO) supplemented with 10% FCS, 100 units/mL penicillin, 100 ug/ml streptomycin, and 2 mM L-glutamine. Cells were split every third day and diluted to a concentration of 2×10^5 cells/mL one day before the experiment was performed. All experiments were performed on exponentially growing cell cultures. Cell densities were 2.5×10^4 cells/mL in all experiments.
(§3) Compounds of the invention were prepared by dissolving the compound at a concentration of 10 mM in 100% DMSO. Final concentrations 10, 1, 0.1, 0.01 and 0.001 μM were obtained by diluting the stock solution directly into the tissue culture medium. Cells were incubated with varying concentrations of compound 3 for 72 hours and the IC50 was determined by MTS (i.e. […]) assay. IC50 in this context stands for the concentration of compound required to inhibit 50% tumor cell growth.

[2] = test system: HL-60 (T-cell leukemia); assay: In vitro cytotoxicity, MTS assay, HL-60 cells; type: cell-based; conditions: Homo sapiens, HL60, Leukemia, 72 hours incubation, concentration to inhibit 50% tumor cell growth
Protocol: as §1, §2, §3

[3] = test system: MES-SA (uterine sarcoma); assay: In vitro cytotoxicity, MTS assay, MES-SA cells; type: cell-based; conditions: Homo sapiens, Uterine Carcinoma, 72 hours incubation
Protocol: as §1, §2, §3

Row | SMILES | IC50 [1] [nM] | IC50 [2] [nM] | IC50 [3] [nM] | Activity against multidrug resistant cell line MES/SA-DX compared with Taxol [1]
1 | CC(=O)O[C@H]1C(=O)[C@@]2(C)[C@H]([C@H](OC(=O)c3ccccc3)[C@]3(O)C[C@H](OC(=O)[C@H](O)[C@@H](NC(=O)c4ccccc4)c4ccccc4)C(C)=C1C3(C)C)[C@]1(OC(C)=O)CO[C@@H]1C[C@@H]2O [Taxol, reference compound] | 10000 | 5 | 5 | 
2 | COc1ccc(-c2cnsc2-c2cc(OC)c(OC)c(OC)c2)cc1N [Compound 64, 2-Methoxy-5-[5-(3,4,5-trimethoxy-phenyl)-isothiazol-4-yl]-phenylamine] | 33 | 25 | 42 | much greater activity than Taxol
3 | COc1ccc(-c2cnsc2-c2cc(OC)c(OC)c(OC)c2)cc1 [Compound 3, 4-(4-methoxy-phenyl)-5-(3,4,5-trimethoxy-phenyl)-isothiazole] | 80 | 474 | 100 | much greater activity than Taxol
